Laboratory results published in patent publication EP4620466A1, “TRIMETHOXYSTYRYL DERIVATIVES FOR USE IN THE TREATMENT OF PACLITAXEL-RESISTANT CANCER” (Instituto de Investigación Biomédica de Salamanca De la …, priority 2024, dated 2025).

How the values were obtained:
Format in all cases: cell-based
HeLa cells [1] = assay: Cell proliferation assay with and without verapamil (MDR transporter check); settings: for potency increase with addition of verapamil: with verapamil versus without
HeLa cells [2] = assay: Cell proliferation assay (XTT), cytostatic activity; settings: Homo sapiens, 72-h treatment, XTT cell proliferation kit
Description: […] cells were seeded in 96-well plates and incubated in the presence or the absence of the indicated compounds at concentrations ranging from 10^-5 to 10^-12 M. The cytostatic activity was measured after 72-h treatments using the XTT (sodium 3'-[1-(phenylaminocarbonyl)-3,4-tetrazolium]-bis(4- methoxy-6-nitro)-benzenesulfonic acid hydrate) cell proliferation kit (Roche Molecular Biochemicals; Mannheim, Germany) following the manufacturer's specifications. Each condition was seeded in triplicate, and experiments were repeated three times to calculate IC values by non-linear regression fitting the data.

CAL33 RPTX = assay: MTT cell viability assay in paclitaxel-resistant cell line; settings: for sensitivity of paclitaxel-resistant cells (cell viability): CAL33 RPTX compared with parental CAL33, 24, 48 and 72 hours of exposure, six doses (Figures 1 and 2)
Description: • Figure 1. Comparison of the effect on cell viability in the parental and paclitaxel-resistant CAL33 cell lines after 24, 48 and 72 hours of exposure to six different doses of paclitaxel. X axis, time (hours). Y axis, cell viability (%). • Figure 2. Comparison of the effect on cell viability in the parental and paclitaxel-resistant CAL33 cell lines after 24, 48 and 72 hours of exposure to six different doses of Compound 39. X axis, Compund 39 (nM). Y axis, cell viability (%). *p-value < 0.05. **p-value < 0.01. ***p-value < 0.001.
In order to characterise resistance to taxanes in HNSCC, a paclitaxel-resistant cell line was generated from the CAL33 cell line, derived from tongue carcinoma, following the method of progressively increasing the dose of cytotoxic agent on the cells in culture. The generation of a stable paclitaxel-resistant cell line was confirmed by an MTT cell viability assay, named CAL33 RPTX (Figure 1).
In order to search for an alternative treatment with a similar but effective cellular effect on paclitaxel-resistant HNSCC cells, a cell viability assay was performed to test the response to Compound 39 of the CAL33 and CAL33 RPTX cell lines.

[3] = Homo sapiens, without verapamil (control), compounds for 72 h, read-out: potency in the absence of verapamil
[4] = read-out: potency in the presence of 10 µM verapamil, incubated with 10 µM verapamil for 2 h, then compounds for 72 h

SMILES	IC50 (HeLa cells [2])	IC50 (HeLa cells [1]; [3])	IC50 (HeLa cells [1]; [4])	other results
COc1cc(/C=C\c2ccc3c(c2)c(C=O)cn3C)cc(OC)c1OC [Compound 29, (Z)-1-Methyl-5-(3,4,5-trimethoxystyryl)-1H-indole-3-carbaldehyde]				potency increase with addition of verapamil (HeLa cells [1]): more than 10 fold
COc1cc(/C=C\c2ccc3c(c2)c(/C=N/O)cn3C)cc(OC)c1OC [Compound 31, (Z + E)-1-methyl-5-(3,4,5-trimethoxystyryl)-1H-indole-3-carbaldehyde oxime]				potency increase with addition of verapamil (HeLa cells [1]): more than 10 fold
COc1cc(/C=C\c2ccc3c(c2)c(C#N)cn3C)cc(OC)c1OC [Compound 33, (Z)-1-Methyl-5-(3,4,5-trimethoxystyryl)-1H-indole-3-carbonitrile]				potency increase with addition of verapamil (HeLa cells [1]): more than 10 fold
COc1cc(/C=C\c2ccc3c(c2)c(C(N)=O)cn3C)cc(OC)c1OC [Compound 39, (Z)-1-Methyl-5-(3,4,5-trimethoxystyryl)-1H-indole-3-carboxamide]	1200 nM			sensitivity of paclitaxel-resistant cells (cell viability) (CAL33 RPTX): maintain sensitivity; effect on tumour cell viability (CAL33 RPTX; at very low doses, CAL33 and CAL33 RPTX cell lines (Figure 2)): pronounced effect
COc1cc(NS(=O)(=O)c2ccc3c(ccn3C)c2)cc(OC)c1 [Compound 45, N-(3,5-dimethoxyphenyl)-1-methyl-1H-indole-5-sulfonamide]	1400 nM	> 1000 nM	> 1000 nM	
COc1cc(OC)cc(N(C)S(=O)(=O)c2ccc3c(c2)c(C=O)cn3C)c1 [Compound 52, N-(3,5-dimethoxyphenyl)-3-formyl-N,1-dimethyl-1H-indole-5-sulfonamide]	> 1000 nM	> 1000 nM	> 1000 nM	
COc1cc(OC)cc(N(C)S(=O)(=O)c2ccc3c(c2)c(C#N)cn3C)c1 [Compound 53, 3-cyano-N-(3,5-dimethoxyphenyl)-N,1-dimethyl-1H-indole-5-sulfonamide]	> 1000 nM	551 nM	642 nM	
CSc1cc(C(=O)c2ccc3c(c2)c(C=O)cn3C)cc(N(C)C)n1 [Compound 92, 5-(2-(dimethylamino)-6-(methylthio)isonicotinoyl)-1-methyl-1H-indole-3-carbaldehyde]	> 1000 nM			
C=C(c1cc(SC)nc(N(C)C)c1)c1ccc2c(c1)c(C(=O)O)cn2C [Compound 94, 5-(1-(2-(dimethylamino)-6-(methylthio)pyridin-4-yl)vinyl)-1-methyl-1H-indole-3-carboxylic acid]	700 nM			
CSc1cc(C(=NO)c2ccc3c(c2)c(C#N)cn3C)cc(N(C)C)n1 [Compound 95, 5-((2-(dimethylamino)-6-(methylthio)pyridin-4-yl)(hydroxyimino)methyl)-1-methyl-1H-indole-3-carbonitrile]	300 nM			
C=C(c1cc(SC)nc(N(C)C)c1)c1ccc2c(c1)c(C#N)cn2C [Compound 96, 5-(1-(2-(dimethylamino)-6-(methylthio)pyridin-4-yl)vinyl)-1-methyl-1H-indole-3-carbonitrile]	600 nM			
C=C(c1cc(SC)nc(N(C)C)c1)c1ccc2c(c1)c(C(N)=O)cn2C [Compound 97, 5-(1-(2-(dimethylamino)-6-(methylthio)pyridin-4-yl)vinyl)-1-methyl-1H-indole-3-carboxamide]	600 nM			
CN(C)c1cc(C(=O)c2ccc3c(ccn3C)c2)cc(Cl)n1 [Compound 98, (2-chloro-6-(dimethylamino)pyridin-4-yl)(1-methyl-1H-indol-5-yl)methanone]	> 1000 nM			
C=C(c1cc(Cl)nc(N(C)C)c1)c1ccc2c(c1)c(C#N)cn2C [Compound 100, 5-(1-(2-chloro-6-(dimethylamino)pyridin-4-yl)vinyl)-1-methyl-1H-indole-3-carbonitrile]	600 nM			
C=C(c1cc(Cl)nc(N(C)C)c1)c1ccc2c(c1)c(C=O)cn2C [Compound 101, 5-(1-(2-chloro-6-(dimethylamino)pyridin-4-yl)vinyl)-1-methyl-1H-indole-3-carbaldehyde]	> 1000 nM			
COc1ccc(CCN(C)CCCC(C#N)(c2ccc(OC)c(OC)c2)C(C)C)cc1OC (stereo not drawn) [Verapamil, verapamil, reference compound]				effect on cell proliferation (HeLa cells [1]; verapamil alone at the working concentrations (1 and 10 µM)): no effect
CC(=O)O[C@H]1C(=O)[C@@]2(C)[C@H]([C@H](OC(=O)c3ccccc3)[C@]3(O)C[C@H](OC(=O)[C@H](O)[C@@H](NC(=O)c4ccccc4)c4ccccc4)C(C)=C1C3(C)C)[C@]1(OC(C)=O)CO[C@@H]1C[C@@H]2O [paclitaxel]				sensitivity of paclitaxel-resistant cells (cell viability) (CAL33 RPTX): resistant

More lines, in order of falling IC50 (HeLa cells [2]), values ahead:

IC50 (HeLa cells [2])	IC50 (HeLa cells [1]; [3])	IC50 (HeLa cells [1]; [4])	SMILES	other results
300 nM			C=C(c1cc(SC)nc(N(C)C)c1)c1ccc2c(c1)c(C=O)cn2C [Compound 93, 5-(1-(2-(dimethylamino)-6-(methylthio)pyridin-4-yl)vinyl)-1-methyl-1H-indole-3-carbaldehyde]	
206 nM	206 nM	287 nM	COc1cc(NS(=O)(=O)c2ccc3c(c2)c(C=O)cn3C)cc(OC)c1OC [Compound 48, 3-Formyl-1-methyl-N-(3,4,5-trimethoxyphenyl)-1H-indole-5-sulfonamide]	
100 nM			C=C(c1cc(Cl)nc(N(C)C)c1)c1ccc2c(ccn2C)c1 [Compound 99, 6-chloro-N,N-dimethyl-4-(1-(1-methyl-1H-indol-5-yl)vinyl)pyridin-2-amine]	
41 nM	41.2 nM	44.7 nM	COc1cc(N(C)S(=O)(=O)c2ccc3c(c2)c(C=O)cn3C)cc(OC)c1OC [Compound 49, 3-Formyl-N,1-dimethyl-N-(3,4,5-trimethoxyphenyl)-1H-indole-5-sulfonamide]	
21 nM	21.4 nM	25.5 nM	COc1cc(NS(=O)(=O)c2ccc3c(c2)c(C#N)cn3C)cc(OC)c1OC [Compound 50, 3-Cyano-1-methyl-N-(3,4,5-trimethoxyphenyl)-1H-indole-5-sulfonamide]	
20.1 nM	551 nM	642 nM	COc1cc(OC)cc(N(C)S(=O)(=O)c2ccc3c(ccn3C)c2)c1 [Compound 47, N-(3,5-dimethoxyphenyl)-N,1-dimethyl-1H-indole-5-sulfonamide]	
12.3 nM	12.3 nM	10.6 nM	COc1cc(N(C)S(=O)(=O)c2ccc3c(c2)c(C#N)cn3C)cc(OC)c1OC [Compound 51, 3-Cyano-N,1-dimethyl-N-(3,4,5-trimethoxyphenyl)-1H-indole-5-sulfonamide]	
10.8 nM	10.8 nM	8.4 nM	COc1cc(NS(=O)(=O)c2ccc3c(ccn3C)c2)cc(OC)c1OC [Compound 44, 1-Methyl-N-(3,4,5-trimethoxyphenyl)-1H-indole-5-sulfonamide]	
2.4 nM	2.4 nM	1.9 nM	COc1cc(N(C)S(=O)(=O)c2ccc3c(ccn3C)c2)cc(OC)c1OC [Compound 46, N,1-dimethyl-N-(3,4,5-trimethoxyphenyl)-1H-indole-5-sulfonamide]	
